The test system of test [1] is A2780 cells (ovarian cancer cells). The test is described as follows: Cell viability of A2780 cells (Cell-titer Glo). The class given is cell-based. As to conditions: Homo sapiens. The procedure:
In order to confirm the inhibitory effect of the compound represented by formula 1 according to the present invention on the growth of MCF7, MCF7-SP, A2780 or A2780-SP cells, the following experiment was performed, and the results are shown in Tables 4 and 5 below.
In addition, A2780 cells (ovarian cancer cells) were plated in a 96-well plate at the density of 3000 viable cells per well, and cultured in RPMI-1640 medium supplemented with 10% FBS and 1% penicillin/streptomycin.
On the next day of culture, the cells were treated with the compound of Examples 57, and 69 to 144, followed by culture for 3 days. Cell viability was evaluated by Cell-titer Glo (Promega, WC, USA), and luciferase activity was detected using a Tecan plate reader (Biocompare, USA).

Test [2] deals with A2780-SP cells (ovarian cancer stem cells). The test is described as follows: Sphere cell viability of A2780-SP cells (Cell-titer Glo). The class given is cell-based. The procedure, abridged:
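A2780-SP ovarian cancer stem cells grown as spheres in ultra-low-attachment wells (1,500 cells/well) in neurobasal stem-cell medium with bFGF, EGF, B27. Compound added the day after plating, re-dosed on day 4, 8-day culture total; viability by CellTiter-Glo luminescence.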

In another test the target is T1, Pin1 (Homo sapiens, UniProt Q13526).
T1 construct: purchased Anaspec
The test is described as follows: Evaluation of Pin1 enzyme inhibitory activity (Sensolyte Green Pin1 assay kit). The class given is biochemical. The essentials: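 Compounds were tested at four working concentrations (100, 10, 1, 0.1 μM), mixed with Pin1 (50 μg/ml stock dilution), developer and substrate (1 μM as prepared). Fluorescence at 490/520 nm was recorded after 2 h in the dark at room temperature. Results were grouped into grades A–D by inhibiting concentration.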

[3] abbreviates: 72 h, cell viability, culture for 3 days, read-out: A2780.
[4] abbreviates: 192 h, sphere cell viability, culture for 8 days, read-out: A2780-SP.
The mark [5] stands for this setting: Table 5, read-out: the concentration (second list of b710, cell line not named; matches A2780-SP column).
[6] abbreviates: Table 2, read-out: concentration at which Pin1 inhibitory activity was exhibited.
Where [7] appears, read: concentration at which the Pin1 enzyme activity is inhibited, 2 hours at room temperature, fluorescence 490 nm/520 nm, read-out: Pin 1 inhibition.
The mark [8] stands for this setting: A2780, Table 5, read-out: A2780 cell concentration.

The values below come from US12583818B2 (DAEGU-GYEONGBUK MEDICAL INNOVATION FOUNDATION, priority 2020, dated 2026).

SMILES strings stand for the structures. pIC50: −log10 of the molar value. Where two headings read alike, the source gives them in different places. Bounds are passed on as bounds.

T1 sequence (Q13526 whole entry): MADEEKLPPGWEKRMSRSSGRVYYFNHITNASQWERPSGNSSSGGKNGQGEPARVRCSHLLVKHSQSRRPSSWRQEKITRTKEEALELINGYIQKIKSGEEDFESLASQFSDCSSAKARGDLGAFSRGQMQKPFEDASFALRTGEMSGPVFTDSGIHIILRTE

Take `Cc1nccn1CCCOc1ccc(S(=O)(=O)NCCCc2c[nH]c3ccc(Cl)cc23)cc1` [Example 161, N-(3-(5-chloro-1H-indol-3-yl)propyl)-4-(3-(2-methyl-1H-imidazol-1-yl)propoxy)benzenesulfonamide]: the pIC50 in test [1] (setting [3]) is under 5.00; in test [2] (setting [4]), over 6.00; in test [2] (setting [5]), over 6.00; at Pin1 (setting [6]), over 6.00; on Pin1 (setting [7]) it was over 6.00.
Turning to `O=S(=O)(NCCCc1c[nH]c2c(Cl)cc(Cl)cc12)c1ccc(OCCCN2CCNCC2)cc1` [Example 164, N-(3-(5,7-dichloro-1H-indol-3-yl)propyl)-4-(3-(piperazin-1-yl)propoxy)benzenesulfonamide], the pIC50 in test [1] (setting [3]) is 5.00 to 6.00; in test [1] (setting [8]), over 5.00; in test [2] (setting [4]) it was over 6.00; in test [2] (setting [5]) it was over 6.00; at Pin1 (setting [6]), over 6.00; at Pin1 (setting [7]) it was over 6.00.
As to `CN1CCN(CCCOc2ccc(S(=O)(=O)NCCCc3c[nH]c4c(Cl)cc(Cl)cc34)cc2)CC1` [Example 165, N-(3-(5,7-dichloro-1H-indol-3-yl)propyl)-4-(3-(4-methylpiperazin-1-yl)propoxy)benzenesulfonamide], the pIC50 in test [1] (setting [3]) was 5.00 to 6.00; in test [1] (setting [8]), over 5.00; in test [2] (setting [4]) it was over 6.00; in test [2] (setting [5]), over 6.00; on Pin1 (setting [6]) it was over 6.00; on Pin1 (setting [7]), over 6.00.
Turning to `O=S(=O)(NCCCc1c[nH]c2ccc(Cl)cc12)c1ccc(OCCCn2cnc(Cl)c2Cl)cc1` [Example 166, N-(3-(5-chloro-1H-indol-3-yl)propyl)-4-(3-(4,5-dichloro-1H-imidazol-1-yl)propoxy)benzenesulfonamide], the pIC50 in test [1] (setting [3]) was under 5.00; in test [2] (setting [4]) it was 5.00 to 6.00; on Pin1 (setting [6]) it was over 6.00; at Pin1 (setting [7]), over 6.00.
With `CN1CCN(CCCOc2ccc(S(=O)(=O)NCCCc3n[nH]c4ccc(Cl)cc34)cc2)CC1` [Example 167, N-(3-(5-chloro-1H-indazole-3-yl)propyl)-4-(3-(4-methylpiperazine-1-yl)propoxy)benzenesulfonamide], the pIC50 was 5.00 to 6.00 in test [1] (setting [3]); over 5.00 in test [1] (setting [8]); over 6.00 in test [2] (setting [4]); over 6.00 in test [2] (setting [5]); over 6.00 at Pin1 (setting [6]); over 6.00 on Pin1 (setting [7]).
`O=S(=O)(NCCCc1n[nH]c2ccc(Cl)cc12)c1ccc(OCCCN2CCNCC2)cc1` [Example 168, N-(3-(5-chloro-1H-indazol-3-yl)propyl)-4-(3-(piperazin-1-yl)propoxy)benzenesulfonamide]: the pIC50 in test [1] (setting [3]) is under 5.00; in test [2] (setting [4]), over 6.00; in test [2] (setting [5]), over 6.00; on Pin1 (setting [6]), over 6.00; on Pin1 (setting [7]) it was over 6.00.
Consider `CN1CCN(CCCOc2ccc(S(=O)(=O)NCCCc3c[nH]c4ncc(Cl)cc34)cc2)CC1` [Example 169, N-(3-(5-chloro-1H-pyrrolo[2,3-b]pyridin-3-yl)propyl)-4-(3-(4-methylpiperazin-1-yl)propoxy)benzenesulfonamide], for which the pIC50 in test [1] (setting [3]) is 5.00 to 6.00; in test [1] (setting [8]), over 5.00; in test [2] (setting [4]), over 6.00; in test [2] (setting [5]), over 6.00; on Pin1 (setting [6]) it was over 6.00; on Pin1 (setting [7]), over 6.00.
With `O=S(=O)(NCCCc1c[nH]c2ncc(Cl)cc12)c1ccc(OCCCN2CCNCC2)cc1` [Example 170, N-(3-(5-chloro-1H-pyrrolo[2,3-b]pyridin-3-yl)propyl)-4-(3-(piperazin-1-yl)propoxy)benzenesulfonamide], the pIC50 in test [1] (setting [3]) is 5.00 to 6.00; in test [1] (setting [8]) it was over 5.00; in test [2] (setting [4]), over 6.00; in test [2] (setting [5]), over 6.00; on Pin1 (setting [6]), over 6.00; at Pin1 (setting [7]), over 6.00.
